Experimental data as given in patent publication US10626368B2, “Method for inducing cerebral cortex neurons” (KYOTO UNIVERSITY, priority 2015, dated 2020).

Tests used:
Type in all cases: cell-based, human
iPS cells (836B1) = experiment: Immunostaining for CoupTF1 and Ctip2 on day 46, suspension culture with various WNT inhibitors (Example 4); settings: 50 nM C59, 100 nM LGK-974, 1 μM ICG-001, day 46; C59 and LGK-974 compared with each other
Protocol: On the day before induction of differentiation, in order to separate the iPS cells (836B1), which had been cultured in a culture medium to which 10 μM Y-27632 had been added, from the SNL feeder cells, the SNL cells were removed with CTK and the remaining cells were then dissociated using Accumax. The cells were transferred on a 96-well plate (Lipidure-coat 96-well plate) in an amount of 9×10^3 cells per well. Thereafter, the cells were subjected to a suspension culture in DMEM/F12 comprising 50 μM Y-27632, 10 μM SB43152, 10 ng/ml bFGF, various types of Wnt inhibitors (50 nM C59, 100 nM LGK-974, or 1 μM ICG-001 (Cellagen Technology)), 100 nM LDN193189, 10% KSR, 0.1 mM MEM non-essential amino acid, 0.1 mM 2-mercaptoethanol, and 2 mM L-Gln (initiation of differentiation induction, day 0). […] Three days later, the medium was exchanged with DMEM/F12 comprising various types of WNT inhibitors (C59, LGK-974, or ICG-001), 100 nM LDN193189, 10% KSR, 0.1 mM MEM non-essential amino acid, 0.1 mM 2-mercaptoethanol, and 2 mM L-Gln (day 6). Thereafter, the medium was exchanged with a fresh one of the same type every 3 days, and the culture was carried out for 18 days after the initiation of differentiation induction (day 18).
A half of the medium on day 18 was removed by aspiration, and thereafter, Neurobasal, to which B27, 2 mM L-Gln, and 10 units/ml penicillin and streptomycin had been added, was added in the same amount as the removed medium to the remaining medium. Likewise, a half amount of the medium was exchanged on day 21. On day 24, the cells were transferred on a petri dish, and thereafter, a half of the medium was exchanged every 3 or 4 days. On day 46, the obtained cells were immunostained using antibodies against CoupTF1 and Ctip2. […] From the aforementioned results, it was confirmed that nerve cells existing in the desired corticocerebral motor area can be induced even by utilizing the WNT inhibitor LGK-974 having a similar action to C59.

[1] = test system: ES cells or the iPS cells; experiment: Immunostaining for CoupTF1 and Ctip2 after 46 days of cerebral cortex differentiation
Source text: (§1) Human ES cells (KhES-1) were obtained from Institute for Frontier Medical Sciences, Kyoto University (Suemori H, et al. Biochem Biophys Res Commun. 345: 926-32, 2006). The human iPS cells 404C2 are cells obtained by introducing Oct3/4, Sox2, Klf4, L-MYC, LIN28 and p53shRNA into human fibroblasts, using an episomal vector, and these cells were obtained from Professor Yamanaka et al. in Kyoto University (Okita, et al, Nat Methods. 8: 409-412, 2011). The human iPS cells 836B1 are cells obtained by introducing Oct3/4, Sox2, Klf4, L-MYC, LIN28, GLIS1 and p53shRNA into human fibroblasts, using an episomal vector, and these cells were obtained from Professor Yamanaka et al. in Kyoto University. The ES cells and the iPS cells were cultured on SNL cells (Takahashi K, et al, Cell. 131: 861-872, 2007).
On the day before induction of differentiation, in order to separate the ES cells or the iPS cells, which had been cultured in a culture medium to which 10 μM Y-27632 (WAKO) had been added, from the SNL feeder cells, the SNL cells were removed with CTK and the remaining cells were then dissociated using Accumax (ICT). The cells were transferred on a 96-well plate (Lipidure-coat 96-well plate (NOF Corporation)) in an amount of 9×10^3 cells per well. Thereafter, the cells were subjected to a suspension culture in DMEM/F12 (WAKO) comprising 50 μM Y-27632 (WAKO), 10 μM SB43152 (Sigma), 10 ng/ml bFGF (Invitrogen), various types of Wnt inhibitors (DKK1 (R & D, 500 ng/ml), C59 (Cellagen Technology, 2-10 nM), XAV (Stemgent, 500 nM-2 μM) or IWP4 (Stemgent, 500 nM-2.5 μM)), LDN193189 (Stemgent), KSR (Invitrogen), 0.1 mM MEM non-essential amino acid (Invitrogen), 0.1 mM 2-mercaptoethanol (WAKO), and 2 mM L-Gln (Invitrogen) (initiation of differentiation induction, day 0). […]
The concentration of LDN193189 used in the above-described induction method was examined. […] Furthermore, the expression levels of the CoupTF1 and Sfrp1 genes were measured according to a qPCR method (FIG. 5C). […]

[2] = test system: ES cells or the iPS cells; experiment: Cell death / cytotoxicity in spheres on the 18th day of the culture; settings: 2 μM LDN193189, 18th day of the culture
Protocol: On the day before induction of differentiation, in order to separate the ES cells or the iPS cells, which had been cultured in a culture medium to which 10 μM Y-27632 (WAKO) had been added, from the SNL feeder cells, the SNL cells were removed with CTK and the remaining cells were then dissociated using Accumax (ICT). The cells were transferred on a 96-well plate (Lipidure-coat 96-well plate (NOF Corporation)) in an amount of 9×10^3 cells per well. Thereafter, the cells were subjected to a suspension culture in DMEM/F12 (WAKO) comprising 50 μM Y-27632 (WAKO), 10 μM SB43152 (Sigma), 10 ng/ml bFGF (Invitrogen), various types of Wnt inhibitors (DKK1 (R & D, 500 ng/ml), C59 (Cellagen Technology, 2-10 nM), XAV (Stemgent, 500 nM-2 μM) or IWP4 (Stemgent, 500 nM-2.5 μM)), LDN193189 (Stemgent), KSR (Invitrogen), 0.1 mM MEM non-essential amino acid (Invitrogen), 0.1 mM 2-mercaptoethanol (WAKO), and 2 mM L-Gln (Invitrogen) (initiation of differentiation induction, day 0). […] Three days later, the medium was exchanged with DMEM/F12 (WAKO) comprising various types of Wnt inhibitors (DKK1, C59, XAV or IWP4 (Stemgent)), LDN193189 (Stemgent), KSR (Invitrogen), 0.1 mM MEM non-essential amino acid (Invitrogen), 0.1 mM 2-mercaptoethanol (WAKO), and 2 mM L-Gln (Invitrogen) (day 6). […]

[3] = test system: ES cells or the iPS cells; experiment: qPCR of marker gene expression in cells differentiated with added inhibitors
Source text: as §1
On the day before induction of differentiation, in order to separate the ES cells or the iPS cells, which had been cultured in a culture medium to which 10 μM Y-27632 (WAKO) had been added, from the SNL feeder cells, the SNL cells were removed with CTK and the remaining cells were then dissociated using Accumax (ICT). The cells were transferred on a 96-well plate (Lipidure-coat 96-well plate (NOF Corporation)) in an amount of 9×10^3 cells per well. Thereafter, the cells were subjected to a suspension culture in DMEM/F12 (WAKO) comprising 50 μM Y-27632 (WAKO), 10 μM SB43152 (Sigma), 10 ng/ml bFGF (Invitrogen), various types of Wnt inhibitors (DKK1 (R & D, 500 ng/ml), C59 (Cellagen Technology, 2-10 nM), XAV (Stemgent, 500 nM-2 μM) or IWP4 (Stemgent, 500 nM-2.5 μM)), LDN193189 (Stemgent), KSR (Invitrogen), 0.1 mM MEM non-essential amino acid (Invitrogen), 0.1 mM 2-mercaptoethanol (WAKO), and 2 mM L-Gln (Invitrogen) (initiation of differentiation induction, day 0). […] Three days later, the medium was exchanged with DMEM/F12 (WAKO) comprising various types of Wnt inhibitors (DKK1, C59, XAV or IWP4 (Stemgent)), LDN193189 (Stemgent), KSR (Invitrogen), 0.1 mM MEM non-essential amino acid (Invitrogen), 0.1 mM 2-mercaptoethanol (WAKO), and 2 mM L-Gln (Invitrogen) (day 6). Thereafter, the medium was exchanged with a fresh one of the same type every 3 days, and the culture was carried out for 18 days after the initiation of differentiation induction (day 18).
The obtained cell mass was transferred on a dish (24-well plate (BD)) coated with 50 μg/ml ornithine (Sigma), 5 μg/ml laminin (Sigma) and 5 μg/ml fibronectin (BD Bioscience Pharmingen), and the culture was continued in Neurobasal (Invitrogen), to which B27 (Invitrogen), 2 mM L-Gln, and 10 units/ml penicillin and streptomycin (Invitrogen) had been added. The culture was carried out for, at maximum, 46 days after the initiation of differentiation induction. It is to be noted that the medium was exchanged with a fresh one every 2 or 3 days.
In the above-described induction method, 500 ng/ml DKK1, 2 nM C59, 500 nM XAV or 500 nM IWP4 was added as a Wnt inhibitor to the cells, and the obtained mixture was then cultured for 18 days. Thereafter, the expression levels of Six3 (forebrain marker), Sox1 (neuroectodermal marker), Foxg1 (cerebral cortex-forming factor), Lhx2 (cerebral cortex-forming factor), Emx2 (forebrain back portion marker), CoupTF1 (forebrain back portion marker) and Pax6 (forebrain front portion marker) genes in the cultured cells were measured by a qPCR method (FIG. 2).
The concentration of C59 used as a Wnt inhibitor in the above-described induction method was examined. Specifically, without using C59, or using 2.5 nM, 10 nM and 1 μM C59, the cells were cultured for 18 days. […] The obtained spheres were subjected to immunostaining of using an antibody against Pax6. […] Furthermore, the expression levels of the Foxg1, Lhx2, Emx2 and CoupTF1 genes in the obtained spheres were measured according to a qPCR method (FIG. 4B). As a result, the expression level of CoupTF1 was low and the expression levels of Lhx2 and Foxg1 were high in the case of using 10 nM C59. […]

[4] = 0.1 μM, 0.5 μM and 2 μM LDN193189, 46 days, qPCR, in a concentration-dependent manner
[5] = 500 ng/ml DKK1 as Wnt inhibitor, cultured for 18 days, qPCR

Q: For O=C1[C@H](Cc2ccc(O)cc2)N2C(=O)CCN(C(=O)NCc3ccccc3)[C@H]2CN1Cc1cccc2ccccc12 [ICG-001], which “efficiency of inducing CoupTF1-negative Ctip2-positive cells” value (iPS cells (836B1)) is on record?
A: The value was “significantly low”.

Q: SB431542 was tested. Which “CoupTF1-negative Ctip2-positive cells” value ([1]; 10 μM SB43152 as TGFβ inhibitor, 46 days) did it give?
A: Its value is “obtained”.

Q: Which “efficiency of inducing CoupTF1-negative Ctip2-positive cells” value (iPS cells (836B1)) does the source give for Cc1cc(-c2ncc(CC(=O)Nc3ccc(-c4cnccn4)cn3)cc2C)ccn1 [LGK-974] here?
A: The value was “not found a large difference”.

Q: For c1ccc2c(-c3cnn4cc(-c5ccc(N6CCNCC6)cc5)cnc34)ccnc2c1 [LDN193189, 4-(6-(4-(piperazin-1-yl)phenyl)pyrazolo [1,5-a]pyrimidin-3-yl)quinoline], which “cell death in spheres” value [2] is on record?
A: The value was “cell death was often found”.

Q: And the cytotoxicity [2]?
A: The cytotoxicity was “strongly appeared”.

Q: And the “expression level of CoupTF1” value [3, 4]?
A: Its value is “low”.

Q: What about the “expression level of Sfrp1” value [3, 4] of the same molecule?
A: Its value is “high”.

Q: What about the “CoupTF1-negative Ctip2-positive cells” value ([1]; 0.1 μM, 0.5 μM and 2 μM LDN193189, 46 days) of the same molecule?
A: The value was “obtained in a concentration-dependent manner”.

B1: DKK1: DKK1 protein, Wnt inhibitor (human NCBI Accession No. NM_012242), R & D (protein, UniProt O94907 32-266, looked up)
Dickkopf-related protein 1: TLNSVLNSNAIKNLPPPLGGAAGHPGSAVSAAPGILYPGGNKYQTIDNYQPYPCAEDEECGTDEYCASPTRGGDAGVQICLACRKRRKRCMRHAMCCPGNYCKNGICVSSDQNHFRGEIEETITESFGNDHSTLDGYSRRTTLSSKMYHTKGQEGSVCLRSSDCASGLCCARHFWSKICKPVLKEGQVCTKHRRKGSHGLEIFQRCYCGEGLSCRIQKDHHQASNSSRLHTCQRH
Q: Which results are given for B1?
A: cells in the back portion of the forebrain induced ([3]; 500 ng/ml DKK1 as Wnt inhibitor, cultured for 18 days): a large number; expression level of CoupTF1 (forebrain back portion marker) [3, 5]: high; expression level of Emx2 (forebrain back portion marker) [3, 5]: high
